Results published in BigSolDB 2.1.

Q: For `O=C(NNC(=S)Nc1ccc(Cl)cc1)c1ccncc1`, which solubility (mole fraction) (in PEG-400, 298.15 K) is on record?
A: 0.108

Q: And the solubility (mole fraction) (in PEG-400, 308.15 K)?
A: 0.114

Q: And the solubility (mole fraction) (in PEG-400, 318.15 K)?
A: 0.12

Q: What about the solubility (mole fraction) (in PEG-400, 328.15 K) of the same compound?
A: 0.126

Q: What about the solubility (mole fraction) (in PEG-400, 338.15 K) of the same compound?
A: 0.131

Q: What about the solubility (mole fraction) (in ethanol, 298.15 K) of the same compound?
A: 0.000647

Q: And the solubility (mole fraction) (in ethanol, 308.15 K)?
A: 0.000693

Q: What about the solubility (mole fraction) (in ethanol, 318.15 K) of the same compound?
A: 0.000743

Q: What about the solubility (mole fraction) (in ethanol, 328.15 K) of the same compound?
A: 0.000792

Q: And the solubility (mole fraction) (in ethanol, 338.15 K)?
A: 0.000834

Q: And the solubility (mole fraction) (in ethylene glycol, 298.15 K)?
A: 0.0077

Q: And the solubility (mole fraction) (in ethylene glycol, 308.15 K)?
A: 0.00841

Q: And the solubility (mole fraction) (in ethylene glycol, 318.15 K)?
A: 0.00894

Q: And the solubility (mole fraction) (in ethylene glycol, 328.15 K)?
A: 0.00961

Q: And the solubility (mole fraction) (in ethylene glycol, 338.15 K)?
A: 0.0104

Q: What about the solubility (mole fraction) (in isopropanol, 298.15 K) of the same compound?
A: 0.00113

Q: What about the solubility (mole fraction) (in isopropanol, 308.15 K) of the same compound?
A: 0.00121

Q: What about the solubility (mole fraction) (in isopropanol, 318.15 K) of the same compound?
A: 0.00121

Q: And the solubility (mole fraction) (in isopropanol, 328.15 K)?
A: 0.00129

Q: What about the solubility (mole fraction) (in isopropanol, 338.15 K) of the same compound?
A: 0.00138

Q: And the solubility (mole fraction) (in propylene glycol, 298.15 K)?
A: 0.00738

Q: And the solubility (mole fraction) (in propylene glycol, 308.15 K)?
A: 0.00789

Q: What about the solubility (mole fraction) (in propylene glycol, 318.15 K) of the same compound?
A: 0.00848

Q: What about the solubility (mole fraction) (in propylene glycol, 328.15 K) of the same compound?
A: 0.00909

Q: What about the solubility (mole fraction) (in propylene glycol, 338.15 K) of the same compound?
A: 0.00987
